How the values were obtained:
Conditions in all cases: exposure time: 72 h
E13 [1] = patient-derived glioblastoma stem cells of classical subtype; assay: surviving fraction (nuclei count normalised to DMSO); higher = more cells surviving (less toxic)
E21 [2] = patient-derived glioblastoma stem cells of mesenchymal subtype; assay: as above
E28 [3] = patient-derived glioblastoma stem cells of classical subtype; assay: as above
E31 [4] = patient-derived glioblastoma stem cells of proneural subtype; assay: as above
E34 [5] = patient-derived glioblastoma stem cells of proneural subtype; assay: as above
E57 [6] = patient-derived glioblastoma stem cells of mesenchymal subtype; assay: as above
FT3469 [7] = normal neural stem cell line; assay: as above
E13 [8] = assay: phenotypic distance (Euclidean, principal components) from DMSO controls (arbitrary units); higher = stronger morphological change
E21 [9] = assay: as above
E28 [10] = assay: as above
E31 [11] = assay: as above
E34 [12] = assay: as above
E57 [13] = assay: as above
FT3469 [14] = assay: as above
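Throughout, for phenotypic distance (Euclidean, principal components) from DMSO controls: cell Painting imaging in 384-well plates, CellProfiler features reduced to at least 20 principal components, Euclidean distance versus same-plate DMSO vehicle wells (0.1% v/v), median over six images per well.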
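Throughout, for surviving fraction (nuclei count normalised to DMSO): nuclei counted by high-content imaging of Hoechst-stained cells in laminin-coated 384-well plates, relative to 0.1% DMSO vehicle wells, with staurosporine as cell-death control.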

COc1c(N2CCNC(C)C2)c(F)cc2c(=O)c(C(=O)O)cn(C3CC3)c12 (stereo unspecified) [Gatifloxacin]
Conditions	phenotypic distance	surviving fraction
E13 [1], 4.1 nM	–	0.802
E13 [1], 12.3 nM	–	0.892
E13 [1], 37 nM	–	0.946
E13 [1], 111.1 nM	–	0.909
E13 [1], 333.3 nM	–	1.06
E13 [1], 1000 nM	–	0.806
E13 [1], 3000 nM	–	0.89
E13 [8], 4.1 nM	0.675	–
E13 [8], 12.3 nM	0.638	–
E13 [8], 37 nM	0.734	–
E13 [8], 111.1 nM	0.5	–
E13 [8], 333.3 nM	0.838	–
E13 [8], 1000 nM	0.825	–
E13 [8], 3000 nM	0.702	–
E21 [2], 4.1 nM	–	0.949
E21 [2], 12.3 nM	–	0.874
E21 [2], 37 nM	–	0.875
E21 [2], 111.1 nM	–	0.802
E21 [2], 333.3 nM	–	0.988
E21 [2], 1000 nM	–	0.814
E21 [2], 3000 nM	–	0.929
E21 [9], 4.1 nM	1	–
E21 [9], 12.3 nM	0.609	–
E21 [9], 37 nM	0.741	–
E21 [9], 111.1 nM	0.873	–
E21 [9], 333.3 nM	0.581	–
E21 [9], 1000 nM	1	–
E21 [9], 3000 nM	0.84	–
E28 [3], 4.1 nM	–	0.883
E28 [3], 12.3 nM	–	0.852
E28 [3], 37 nM	–	0.951
E28 [3], 111.1 nM	–	0.859
E28 [3], 333.3 nM	–	0.769
E28 [3], 1000 nM	–	0.982
E28 [3], 3000 nM	–	1.01
E28 [10], 4.1 nM	0.347	–
E28 [10], 12.3 nM	0.661	–
E28 [10], 37 nM	0.66	–
E28 [10], 111.1 nM	0.527	–
E28 [10], 333.3 nM	0.675	–
E28 [10], 1000 nM	0.514	–
E28 [10], 3000 nM	0.819	–
E31 [4], 4.1 nM	–	1.03
E31 [4], 12.3 nM	–	0.99
E31 [4], 37 nM	–	0.946
E31 [4], 111.1 nM	–	0.898
E31 [4], 333.3 nM	–	1.01
E31 [4], 1000 nM	–	1.04
E31 [4], 3000 nM	–	1.24
E31 [11], 4.1 nM	0.659	–
E31 [11], 12.3 nM	2.43	–
E31 [11], 37 nM	0.809	–
E31 [11], 111.1 nM	0.741	–
E31 [11], 333.3 nM	0.52	–
E31 [11], 1000 nM	0.474	–
E31 [11], 3000 nM	0.691	–
E34 [5], 4.1 nM	–	0.932
E34 [5], 12.3 nM	–	0.945
E34 [5], 37 nM	–	1.06
E34 [5], 111.1 nM	–	0.967
E34 [5], 333.3 nM	–	1.09
E34 [5], 1000 nM	–	0.908
E34 [5], 3000 nM	–	0.955
E34 [12], 4.1 nM	0.671	–
E34 [12], 12.3 nM	0.619	–
E34 [12], 37 nM	0.973	–
E34 [12], 111.1 nM	0.498	–
E34 [12], 333.3 nM	0.426	–
E34 [12], 1000 nM	0.62	–
E34 [12], 3000 nM	0.52	–
E57 [6], 4.1 nM	–	0.966
E57 [6], 12.3 nM	–	1.04
E57 [6], 37 nM	–	0.993
E57 [6], 111.1 nM	–	1.05
E57 [6], 333.3 nM	–	1.06
E57 [6], 1000 nM	–	1.05
E57 [6], 3000 nM	–	1.05
E57 [13], 4.1 nM	0.413	–
E57 [13], 12.3 nM	0.404	–
E57 [13], 37 nM	0.488	–
E57 [13], 111.1 nM	0.447	–
E57 [13], 333.3 nM	0.584	–
E57 [13], 1000 nM	0.465	–
E57 [13], 3000 nM	0.475	–
FT3469 [7], 4.1 nM	–	0.737
FT3469 [7], 12.3 nM	–	0.928
FT3469 [7], 37 nM	–	0.867
FT3469 [7], 111.1 nM	–	0.774
FT3469 [7], 333.3 nM	–	0.957
FT3469 [7], 1000 nM	–	0.995
FT3469 [7], 3000 nM	–	0.79
FT3469 [14], 4.1 nM	1.03	–
FT3469 [14], 12.3 nM	0.624	–
FT3469 [14], 37 nM	0.658	–
FT3469 [14], 111.1 nM	0.568	–
FT3469 [14], 333.3 nM	0.713	–
FT3469 [14], 1000 nM	0.561	–
FT3469 [14], 3000 nM	1.24	–

CN(c1nccc(=O)[nH]1)C1CCN(c2nc3ccccc3n2Cc2ccc(F)cc2)CC1 [Mizolastine]
Conditions	phenotypic distance	surviving fraction
E13 [1], 4.1 nM	–	0.797
E13 [1], 12.3 nM	–	0.967
E13 [1], 37 nM	–	0.849
E13 [1], 111.1 nM	–	0.869
E13 [1], 333.3 nM	–	0.989
E13 [1], 1000 nM	–	0.896
E13 [1], 3000 nM	–	0.956
E13 [8], 4.1 nM	0.868	–
E13 [8], 12.3 nM	0.459	–
E13 [8], 37 nM	0.939	–
E13 [8], 111.1 nM	0.783	–
E13 [8], 333.3 nM	0.597	–
E13 [8], 1000 nM	0.555	–
E13 [8], 3000 nM	0.59	–
E21 [2], 4.1 nM	–	1
E21 [2], 12.3 nM	–	1
E21 [2], 37 nM	–	0.949
E21 [2], 111.1 nM	–	1.03
E21 [2], 333.3 nM	–	1.03
E21 [2], 1000 nM	–	1.01
E21 [2], 3000 nM	–	1.09
E21 [9], 4.1 nM	0.704	–
E21 [9], 12.3 nM	0.468	–
E21 [9], 37 nM	0.444	–
E21 [9], 111.1 nM	0.765	–
E21 [9], 333.3 nM	0.434	–
E21 [9], 1000 nM	0.621	–
E21 [9], 3000 nM	0.543	–
E28 [3], 4.1 nM	–	1.08
E28 [3], 12.3 nM	–	1.1
E28 [3], 37 nM	–	1.1
E28 [3], 111.1 nM	–	1.19
E28 [3], 333.3 nM	–	1.06
E28 [3], 1000 nM	–	1.13
E28 [3], 3000 nM	–	0.972
E28 [10], 4.1 nM	0.853	–
E28 [10], 12.3 nM	5.48	–
E28 [10], 37 nM	0.52	–
E28 [10], 111.1 nM	0.84	–
E28 [10], 333.3 nM	0.698	–
E28 [10], 1000 nM	0.693	–
E28 [10], 3000 nM	0.97	–
E31 [4], 4.1 nM	–	1.01
E31 [4], 12.3 nM	–	1.16
E31 [4], 37 nM	–	0.825
E31 [4], 111.1 nM	–	1.19
E31 [4], 333.3 nM	–	0.944
E31 [4], 1000 nM	–	1.18
E31 [4], 3000 nM	–	0.875
E31 [11], 4.1 nM	0.567	–
E31 [11], 12.3 nM	0.802	–
E31 [11], 37 nM	1.44	–
E31 [11], 111.1 nM	0.455	–
E31 [11], 333.3 nM	0.814	–
E31 [11], 1000 nM	0.555	–
E31 [11], 3000 nM	0.652	–
E34 [5], 4.1 nM	–	1.16
E34 [5], 12.3 nM	–	0.983
E34 [5], 37 nM	–	1.01
E34 [5], 111.1 nM	–	0.939
E34 [5], 333.3 nM	–	1.04
E34 [5], 1000 nM	–	1.1
E34 [5], 3000 nM	–	0.941
E34 [12], 4.1 nM	0.476	–
E34 [12], 12.3 nM	1.2	–
E34 [12], 37 nM	1.86	–
E34 [12], 111.1 nM	0.66	–
E34 [12], 333.3 nM	0.677	–
E34 [12], 1000 nM	0.599	–
E34 [12], 3000 nM	0.698	–
E57 [6], 4.1 nM	–	0.99
E57 [6], 12.3 nM	–	1.02
E57 [6], 37 nM	–	1.06
E57 [6], 111.1 nM	–	0.976
E57 [6], 333.3 nM	–	1.05
E57 [6], 1000 nM	–	1.05
E57 [6], 3000 nM	–	1.06
E57 [13], 4.1 nM	0.544	–
E57 [13], 12.3 nM	0.715	–
E57 [13], 37 nM	3.66	–
E57 [13], 111.1 nM	0.766	–
E57 [13], 333.3 nM	0.54	–
E57 [13], 1000 nM	0.624	–
E57 [13], 3000 nM	0.531	–
FT3469 [7], 4.1 nM	–	1.15
FT3469 [7], 12.3 nM	–	0.975
FT3469 [7], 37 nM	–	0.987
FT3469 [7], 111.1 nM	–	1.06
FT3469 [7], 333.3 nM	–	1.03
FT3469 [7], 1000 nM	–	0.94
FT3469 [7], 3000 nM	–	1.15
FT3469 [14], 4.1 nM	0.538	–
FT3469 [14], 12.3 nM	1.14	–
FT3469 [14], 37 nM	0.386	–
FT3469 [14], 111.1 nM	0.797	–
FT3469 [14], 333.3 nM	0.453	–
FT3469 [14], 1000 nM	0.544	–
FT3469 [14], 3000 nM	0.613	–
